Reference: the supplement of paper PMC10307832

Legend:
Test in all cases: relative viability (nuclei count vs DMSO), 5 days (fraction); higher = more cells survive
HCC-78 = tested on: HCC-78
Summary of the method: (§1)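 After 5 days of treatment, lung cancer cells in 1536-well plates were fixed and stained in a single step (final 0.05% Triton X-100, 1% formaldehyde, 1 ug/ml Hoechst) and their nuclei counted on 4× images. Treatment had been applied by pin tool the day after seeding as one drug alone or as a fixed anchor-drug dose with five library-drug doses (not always all listed) in √10 steps. Relative viability is the nuclei count of treated wells divided by that of vehicle wells, and values are medians of duplicate plates.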

NCI-H1793 = tested on: NCI-H1793
Summary of the method: as §1

HOP-62 = tested on: HOP-62
Summary of the method: as §1

NCI-H1792 = tested on: NCI-H1792
Summary of the method: as §1

LC-2-ad = tested on: LC-2-ad
Summary of the method: as §1

NCI-H1944 = tested on: NCI-H1944
Summary of the method: as §1

NCI-H1915 = tested on: NCI-H1915
Summary of the method: as §1

LXF-289 = tested on: LXF-289
Summary of the method: as §1

LCLC-97TM1 = tested on: LCLC-97TM1
Summary of the method: as §1

NCI-H2170 = tested on: NCI-H2170
Summary of the method: as §1

EPLC-272H = tested on: EPLC-272H
Summary of the method: as §1

HCC-366 = tested on: HCC-366
Summary of the method: as §1

A-427 = tested on: A-427
Summary of the method: as §1

NCI-H1755 = tested on: NCI-H1755
Summary of the method: as §1

NCI-H2342 = tested on: NCI-H2342
Summary of the method: as §1

NCI-H2085 = tested on: NCI-H2085
Summary of the method: as §1

NCI-H358 = tested on: NCI-H358
Summary of the method: as §1

SW 900 = tested on: SW 900
Summary of the method: as §1

NCI-H460 = tested on: NCI-H460
Summary of the method: as §1

LU99A = tested on: LU99A
Summary of the method: as §1

NCI-H1975 = tested on: NCI-H1975
Summary of the method: as §1

C[C@@H]1CN(CC(=O)Nc2ccc3c(c2)Cc2cccc(-c4cc(=O)cc(N5CCOCC5)o4)c2S3)C[C@H](C)O1 + NC(=O)Nc1cc(-c2cccc(F)c2)sc1C(=O)N[C@H]1CCCNC1 [AZD7762] (partner 0.2 µM)
relative viability (HCC-78; first compound 0.04 µM): 0.502
relative viability (HCC-78; first compound 0.1265 µM): 0.642
relative viability (HCC-78; first compound 0.4 µM): 0.479
relative viability (HCC-78; first compound 4 µM): 0.66
relative viability (NCI-H1793; first compound 0.04 µM): 0.588
relative viability (NCI-H1793; first compound 0.1265 µM): 0.514
relative viability (NCI-H1793; first compound 0.4 µM): 0.404
relative viability (NCI-H1793; first compound 4 µM): 0.25
relative viability (HOP-62; first compound 0.04 µM): 0.445
relative viability (HOP-62; first compound 0.1265 µM): 0.599
relative viability (HOP-62; first compound 0.4 µM): 0.739
relative viability (HOP-62; first compound 4 µM): 0.624
relative viability (NCI-H1792; first compound 0.04 µM): 0.662
relative viability (NCI-H1792; first compound 0.1265 µM): 0.638
relative viability (NCI-H1792; first compound 0.4 µM): 0.564
relative viability (NCI-H1792; first compound 4 µM): 0.314
relative viability (LC-2-ad; first compound 0.04 µM): 0.838
relative viability (LC-2-ad; first compound 0.1265 µM): 0.758
relative viability (LC-2-ad; first compound 0.4 µM): 0.86
relative viability (LC-2-ad; first compound 4 µM): 0.807
relative viability (NCI-H1944; first compound 0.1265 µM): 0.561
relative viability (NCI-H1944; first compound 0.4 µM): 0.605
relative viability (NCI-H1944; first compound 4 µM): 0.396
relative viability (NCI-H1915; first compound 0.04 µM): 0.575
relative viability (NCI-H1915; first compound 0.1265 µM): 0.727
relative viability (NCI-H1915; first compound 0.4 µM): 0.735
relative viability (NCI-H1915; first compound 4 µM): 0.515
relative viability (LXF-289; first compound 0.04 µM): 1.05
relative viability (LXF-289; first compound 0.1265 µM): 1.12
relative viability (LXF-289; first compound 0.4 µM): 1.19
relative viability (LXF-289; first compound 4 µM): 1.04
relative viability (LCLC-97TM1; first compound 0.1265 µM): 0.222
relative viability (LCLC-97TM1; first compound 0.4 µM): 0.231
relative viability (LCLC-97TM1; first compound 4 µM): 0.221
relative viability (NCI-H2170; first compound 0.04 µM): 0.95
relative viability (NCI-H2170; first compound 0.1265 µM): 0.807
relative viability (NCI-H2170; first compound 0.4 µM): 0.812
relative viability (NCI-H2170; first compound 4 µM): 0.633
relative viability (EPLC-272H; first compound 0.04 µM): 0.237
relative viability (EPLC-272H; first compound 0.1265 µM): 0.348
relative viability (EPLC-272H; first compound 0.4 µM): 0.226
relative viability (EPLC-272H; first compound 4 µM): 0.321
relative viability (HCC-366; first compound 0.04 µM): 0.247
relative viability (HCC-366; first compound 0.1265 µM): 0.253
relative viability (HCC-366; first compound 0.4 µM): 0.163
relative viability (HCC-366; first compound 4 µM): 0.184
relative viability (A-427; first compound 0.04 µM): 0.855
relative viability (A-427; first compound 0.1265 µM): 0.831
relative viability (A-427; first compound 0.4 µM): 0.73
relative viability (A-427; first compound 4 µM): 0.635
relative viability (NCI-H1755; first compound 0.04 µM): 0.422
relative viability (NCI-H1755; first compound 0.1265 µM): 0.44
relative viability (NCI-H1755; first compound 0.4 µM): 0.494
relative viability (NCI-H1755; first compound 4 µM): 0.445
relative viability (NCI-H2342; first compound 0.04 µM): 0.499
relative viability (NCI-H2342; first compound 0.1265 µM): 0.495
relative viability (NCI-H2342; first compound 0.4 µM): 0.492
relative viability (NCI-H2342; first compound 4 µM): 0.441
relative viability (NCI-H2085; first compound 0.04 µM): 0.959
relative viability (NCI-H2085; first compound 0.1265 µM): 1.06
relative viability (NCI-H2085; first compound 0.4 µM): 0.997
relative viability (NCI-H2085; first compound 4 µM): 0.796
relative viability (NCI-H358; first compound 0.04 µM): 0.463
relative viability (NCI-H358; first compound 0.1265 µM): 0.416
relative viability (NCI-H358; first compound 0.4 µM): 0.539
relative viability (NCI-H358; first compound 4 µM): 0.365
relative viability (SW 900; first compound 0.04 µM): 0.629
relative viability (SW 900; first compound 0.1265 µM): 0.669
relative viability (SW 900; first compound 0.4 µM): 0.506
relative viability (SW 900; first compound 4 µM): 0.281
relative viability (NCI-H460; first compound 0.04 µM): 0.617
relative viability (NCI-H460; first compound 0.1265 µM): 0.638
relative viability (NCI-H460; first compound 0.4 µM): 0.63
relative viability (NCI-H460; first compound 4 µM): 0.368
relative viability (LU99A; first compound 0.04 µM): 0.334
relative viability (LU99A; first compound 0.1265 µM): 0.472
relative viability (LU99A; first compound 0.4 µM): 0.465
relative viability (LU99A; first compound 4 µM): 0.363
relative viability (NCI-H1975; first compound 0.04 µM): 0.729
relative viability (NCI-H1975; first compound 0.1265 µM): 0.608
relative viability (NCI-H1975; first compound 0.4 µM): 0.624
relative viability (NCI-H1975; first compound 4 µM): 0.585
